Experiments:
PAMPA permeability assay = assay type: in vitro ADME; conditions: pH 7.4
Description: Table 3 Physicochemical Properties of 16k | column: result

PKAC-alpha = target: T1, PKAC-alpha (Homo sapiens, UniProt P17612); experiment: KINOMEscan scanEDGE; assay type: binding; conditions: read-out: % Control (1µM)
T1 construct: purchased DiscoveRx KINOMEscan (scanEDGE); Thermo Fisher SelectScreen (Z'-LYTE) for PLK-1
Method: (§1) Compound X was assayed at 1 μM in the DiscoveRx KINOMEscan (scanEDGE) assay platform. The results for single-concentration binding interactions are reported as “%Ctrl” (DMSO = 100%Ctrl), where lower numbers indicate stronger hits.

RIOK2 = target: T2, RIOK2 (Homo sapiens, UniProt Q9BVS4); experiment: KINOMEscan scanEDGE; assay type: binding; conditions: read-out: % Control (1µM)
T2 construct: purchased DiscoveRx KINOMEscan (scanEDGE); Thermo Fisher SelectScreen (Z'-LYTE) for PLK-1
Method: as §1

ALK WT = ALK WT (Homo sapiens, UniProt Q9UM73); experiment: Biochemical ALK WT IC50; assay type: binding; conditions: geometric mean
HeLa cells = experiment: Mitotic arrest and mitotic markers in HeLa cells (Western blot); assay type: cell-based
Method: Protein extracts of cells were prepared by lysis in radioimmunoprecipitation assay buffer (Sigma) supplemented with protease inhibitors (complete protease inhibitor cocktail, Roche). Protein extracts (25 μg) were separated by sodium dodecyl sulfate-polyacrylamide gel electrophoresis and transferred onto poly(vinylidene difluoride) membranes using the Trans-Blot Turbo transfer system (BioRad). After blocking with 5% bovine serum albumin in PBS with 0.1% Tween-20 for 30 min, the membrane was incubated with primary antibodies for 1 h at room temperature. Horseradish peroxidase-linked secondary antibodies were incubated 30 min at room temperature followed by enhanced chemiluminescence (ECL) detection (ECL Western blot substrate, Pierce).
Primary antibodies were obtained from the following sources: PLK-1 (05-844) and phosphohistone H3 (Ser10) (05806) from Millipore; pPlk1-T210 (5472) from Cell Signaling; pPlk1-S137 (21738) from Abcam; and cyclin B1 (GNS1) and β-actin (A2228) from Sigma-Aldrich served as loading control.

BRDT(1) = target: T3, BRDT(1) (Homo sapiens, UniProt Q58F21); experiment: Bromodomain thermal shift screening (DSF); assay type: binding; conditions: Group II (BET)
T3 construct: Bromodomain thermal shift screening data for 16k
Method: (§2) BRD4 thermal shift was measured in a differential scanning fluorimetry (DSF) assay. The assay was performed on a Stratagene Mx3005P system quantitative polymerase chain reaction (qPCR). The assay was performed in 96-well plates with 20 μL of protein at 2 μM in DSF-assay buffer (10 mM HEPES pH 7.5, 500 mM NaCl) to which 4 μL of Sypro orange dye and 0.4 μL of 10 μM compound in DMSO was added. The plate was sealed and centrifuged (1 min, 1000 rpm), and the qPCR machine was used to detect SYPRO fluorescence while increasing the temperature from 25 to 95 °C in 71 cycles. The sigmoidal part of the fluorescence signal was fitted using the Boltzmann equation, the points of change were defined, and the thermal shift was calculated by subtracting the protein/DMSO Tm shift from the protein/compound Tm shift.

BRD2(2) = target: T4, BRD2(2) (Homo sapiens, UniProt P25440); experiment: Bromodomain thermal shift screening (DSF); assay type: binding; conditions: Group II (BET)
T4 construct: BRD2(2)
Method: as §2

SP100 = target: T5, SP100 (Homo sapiens, UniProt P23497); experiment: Bromodomain thermal shift screening (DSF); assay type: binding; conditions: Group V
T5 construct: Bromodomain thermal shift screening data for 16k
Method: as §2

BRD4(2) = target: T6, BRD4(2) (Homo sapiens, UniProt O60885); experiment: Bromodomain thermal shift screening (DSF); assay type: binding; conditions: Group II (BET)
T6 construct: BRD4(2)
Method: as §2

BRD3(1) = target: T7, BRD3(1) (Homo sapiens, UniProt Q15059); experiment: Bromodomain thermal shift screening (DSF); assay type: binding; conditions: Group II (BET)
T7 construct: BRD3(1)
Method: as §2

SMARCA2A = target: T8, SMARCA2A (Homo sapiens, UniProt P51531); experiment: Bromodomain thermal shift screening (DSF); assay type: binding; conditions: Group VIII
T8 construct: Bromodomain thermal shift screening data for 16k
Method: as §2

BRPF1A = target: T9, BRPF1A (Homo sapiens, UniProt P55201); experiment: Bromodomain thermal shift screening (DSF); assay type: binding; conditions: Group IV
T9 construct: Bromodomain thermal shift screening data for 16k
Method: as §2

WDR9 = experiment: Bromodomain thermal shift screening (DSF); assay type: binding; conditions: Group VII
Method: as §2

TAF1A(1) = target: T10, TAF1A(1) (Homo sapiens, UniProt P21675); experiment: Bromodomain thermal shift screening (DSF); assay type: binding; conditions: Group VII
T10 construct: Bromodomain thermal shift screening data for 16k
Method: as §2

TRIM33B = experiment: Bromodomain thermal shift screening (DSF); assay type: binding; conditions: Group V
Method: as §2

BRD2(1) = target: T11, BRD2(1) (Homo sapiens, UniProt P25440); experiment: Bromodomain thermal shift screening (DSF); assay type: binding; conditions: Group II (BET)
T11 construct: BRD2(1)
Method: as §2

SMARCA2B = target: T12, SMARCA2B (Homo sapiens, UniProt P51531); experiment: Bromodomain thermal shift screening (DSF); assay type: binding; conditions: Group VIII
T12 construct: Bromodomain thermal shift screening data for 16k
Method: as §2

PB1A(5) = target: T13, PB1A(5) (Homo sapiens, UniProt Q86U86); experiment: Bromodomain thermal shift screening (DSF); assay type: binding; conditions: Group VIII
T13 construct: Bromodomain thermal shift screening data for 16k
Method: as §2

TAF1A(2) = target: T14, TAF1A(2) (Homo sapiens, UniProt P21675); experiment: Bromodomain thermal shift screening (DSF); assay type: binding; conditions: Group VII
T14 construct: Bromodomain thermal shift screening data for 16k
Method: as §2

BRD3(2) = target: T15, BRD3(2) (Homo sapiens, UniProt Q15059); experiment: Bromodomain thermal shift screening (DSF); assay type: binding; conditions: Group II (BET)
T15 construct: BRD3(2)
Method: as §2

PB1A(6) = target: T16, PB1A(6) (Homo sapiens, UniProt Q86U86); experiment: Bromodomain thermal shift screening (DSF); assay type: binding; conditions: Group VIII
T16 construct: Bromodomain thermal shift screening data for 16k
Method: as §2

PB1A(1) = target: T17, PB1A(1) (Homo sapiens, UniProt Q86U86); experiment: Bromodomain thermal shift screening (DSF); assay type: binding; conditions: Group VIII
T17 construct: Bromodomain thermal shift screening data for 16k
Method: as §2

PB1A(4) = target: T18, PB1A(4) (Homo sapiens, UniProt Q86U86); experiment: Bromodomain thermal shift screening (DSF); assay type: binding; conditions: Group VIII
T18 construct: Bromodomain thermal shift screening data for 16k
Method: as §2

BRD1 = target: T19, BRD1 (Homo sapiens, UniProt O95696); experiment: Bromodomain thermal shift screening (DSF); assay type: binding; conditions: Group IV
T19 construct: Bromodomain thermal shift screening data for 16k
Method: as §2

TAF1LA(2) = target: T20, TAF1LA(2) (Homo sapiens, UniProt Q8IZX4); experiment: Bromodomain thermal shift screening (DSF); assay type: binding; conditions: Group VII
T20 construct: Bromodomain thermal shift screening data for 16k
Method: as §2

EP300 = target: T21, EP300 (Homo sapiens, UniProt Q09472); experiment: Bromodomain thermal shift screening (DSF); assay type: binding; conditions: Group III
T21 construct: Bromodomain thermal shift screening data for 16k
Method: as §2

BRDT(2) = target: T22, BRDT(2) (Homo sapiens, UniProt Q58F21); experiment: Bromodomain thermal shift screening (DSF); assay type: binding; conditions: Group II (BET)
T22 construct: Bromodomain thermal shift screening data for 16k
Method: as §2

PCAF = target: T23, PCAF (Homo sapiens, UniProt Q92831); experiment: Bromodomain thermal shift screening (DSF); assay type: binding; conditions: Group I
T23 construct: Bromodomain thermal shift screening data for 16k
Method: as §2

TAF1LA(1) = target: T24, TAF1LA(1) (Homo sapiens, UniProt Q8IZX4); experiment: Bromodomain thermal shift screening (DSF); assay type: binding; conditions: Group VII
T24 construct: Bromodomain thermal shift screening data for 16k
Method: as §2

PB1A(3) = target: T25, PB1A(3) (Homo sapiens, UniProt Q86U86); experiment: Bromodomain thermal shift screening (DSF); assay type: binding; conditions: Group VIII
T25 construct: Bromodomain thermal shift screening data for 16k
Method: as §2

SMARCA4A = target: T26, SMARCA4A (Homo sapiens, UniProt P51532); experiment: Bromodomain thermal shift screening (DSF); assay type: binding; conditions: Group VIII
T26 construct: Bromodomain thermal shift screening data for 16k
Method: as §2

T15 sequence (Q15059 306-415 limits assumed, species assumed): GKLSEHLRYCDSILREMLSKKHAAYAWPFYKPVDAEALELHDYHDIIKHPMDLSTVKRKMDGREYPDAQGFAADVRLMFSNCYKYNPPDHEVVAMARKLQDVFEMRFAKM
T12 sequence (P51531 1373-1493 isoform P51531-2 limits assumed): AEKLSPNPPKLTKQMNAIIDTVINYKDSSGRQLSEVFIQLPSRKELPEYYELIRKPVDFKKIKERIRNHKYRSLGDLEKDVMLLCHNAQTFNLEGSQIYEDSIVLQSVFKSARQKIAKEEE
T23 sequence (Q92831 723-827 limits assumed): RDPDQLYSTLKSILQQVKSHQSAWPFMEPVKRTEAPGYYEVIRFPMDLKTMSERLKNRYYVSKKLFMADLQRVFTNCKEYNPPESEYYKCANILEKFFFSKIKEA
T11 sequence (P25440 74-180 limits assumed, species assumed): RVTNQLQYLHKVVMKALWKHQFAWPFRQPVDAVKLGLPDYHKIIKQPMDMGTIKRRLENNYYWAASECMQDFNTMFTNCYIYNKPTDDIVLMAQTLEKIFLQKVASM
T8 sequence (P51531 1378-1506 limits assumed): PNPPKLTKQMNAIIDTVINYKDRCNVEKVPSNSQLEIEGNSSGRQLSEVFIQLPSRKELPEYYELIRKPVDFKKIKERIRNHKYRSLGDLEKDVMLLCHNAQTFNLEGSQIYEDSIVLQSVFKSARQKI
T13 sequence (Q86U86 653-763 limits assumed): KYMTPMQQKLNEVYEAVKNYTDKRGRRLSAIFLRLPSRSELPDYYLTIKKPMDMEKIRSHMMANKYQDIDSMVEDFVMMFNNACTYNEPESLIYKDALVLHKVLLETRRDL
T2 sequence (Q9BVS4 whole entry): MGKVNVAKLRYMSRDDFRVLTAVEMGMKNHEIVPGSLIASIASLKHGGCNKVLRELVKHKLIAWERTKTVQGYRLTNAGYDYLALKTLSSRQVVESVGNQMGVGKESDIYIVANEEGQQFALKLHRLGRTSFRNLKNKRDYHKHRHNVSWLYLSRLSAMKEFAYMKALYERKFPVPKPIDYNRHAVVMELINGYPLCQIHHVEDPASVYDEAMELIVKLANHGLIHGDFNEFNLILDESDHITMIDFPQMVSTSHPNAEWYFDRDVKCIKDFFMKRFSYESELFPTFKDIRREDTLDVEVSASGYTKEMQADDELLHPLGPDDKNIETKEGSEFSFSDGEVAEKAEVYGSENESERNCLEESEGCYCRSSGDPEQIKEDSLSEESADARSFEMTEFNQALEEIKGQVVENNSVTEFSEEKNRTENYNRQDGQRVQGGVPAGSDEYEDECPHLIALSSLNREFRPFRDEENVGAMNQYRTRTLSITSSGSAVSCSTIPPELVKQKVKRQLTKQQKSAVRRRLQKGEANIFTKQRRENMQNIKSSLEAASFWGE
T18 sequence (Q86U86 518-625 limits assumed): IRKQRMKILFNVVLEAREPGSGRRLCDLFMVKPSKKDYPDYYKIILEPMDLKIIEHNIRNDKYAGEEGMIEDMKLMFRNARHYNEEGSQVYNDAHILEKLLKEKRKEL
T9 sequence (P55201 626-746 isoform P55201-2 limits assumed): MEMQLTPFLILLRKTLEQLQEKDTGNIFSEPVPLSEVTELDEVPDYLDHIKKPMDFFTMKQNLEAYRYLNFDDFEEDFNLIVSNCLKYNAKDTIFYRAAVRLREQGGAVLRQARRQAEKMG
T10 sequence (P21675 1397-1505 limits assumed): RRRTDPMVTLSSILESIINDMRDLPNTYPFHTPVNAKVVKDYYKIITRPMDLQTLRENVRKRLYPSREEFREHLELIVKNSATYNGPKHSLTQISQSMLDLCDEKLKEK
T17 sequence (Q86U86 41-151 limits assumed): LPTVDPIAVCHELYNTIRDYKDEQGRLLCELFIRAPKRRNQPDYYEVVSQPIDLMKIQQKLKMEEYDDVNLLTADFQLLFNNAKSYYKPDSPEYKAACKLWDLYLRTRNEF
T7 sequence (Q15059 34-140 limits assumed, species assumed): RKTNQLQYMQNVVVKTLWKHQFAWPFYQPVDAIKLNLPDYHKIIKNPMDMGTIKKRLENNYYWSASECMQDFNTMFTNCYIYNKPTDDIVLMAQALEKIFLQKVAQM
T19 sequence (O95696 562-666 limits assumed): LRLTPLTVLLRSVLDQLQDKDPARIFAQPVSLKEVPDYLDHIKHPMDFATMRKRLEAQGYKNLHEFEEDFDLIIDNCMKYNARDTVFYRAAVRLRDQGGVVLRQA
T4 sequence (P25440 344-453 limits assumed, species assumed): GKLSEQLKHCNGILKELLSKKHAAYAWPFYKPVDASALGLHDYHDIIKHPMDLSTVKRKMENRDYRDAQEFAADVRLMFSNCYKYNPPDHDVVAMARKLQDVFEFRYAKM
T26 sequence (P51532 1453-1564 limits assumed): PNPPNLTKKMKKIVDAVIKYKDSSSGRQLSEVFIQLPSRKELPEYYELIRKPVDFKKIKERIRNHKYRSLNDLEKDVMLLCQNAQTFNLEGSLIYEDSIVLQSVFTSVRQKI
T16 sequence (Q86U86 769-879 limits assumed): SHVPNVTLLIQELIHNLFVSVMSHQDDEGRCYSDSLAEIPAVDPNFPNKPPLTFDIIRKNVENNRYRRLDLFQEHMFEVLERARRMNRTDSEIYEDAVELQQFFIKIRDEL
T24 sequence (Q8IZX4 1395-1503 limits assumed): as the sequence (P21675 1397-1505 limits assumed) above, with Y28H, R62C counted along it
T5 sequence (P23497 1-885 isoform P23497-4): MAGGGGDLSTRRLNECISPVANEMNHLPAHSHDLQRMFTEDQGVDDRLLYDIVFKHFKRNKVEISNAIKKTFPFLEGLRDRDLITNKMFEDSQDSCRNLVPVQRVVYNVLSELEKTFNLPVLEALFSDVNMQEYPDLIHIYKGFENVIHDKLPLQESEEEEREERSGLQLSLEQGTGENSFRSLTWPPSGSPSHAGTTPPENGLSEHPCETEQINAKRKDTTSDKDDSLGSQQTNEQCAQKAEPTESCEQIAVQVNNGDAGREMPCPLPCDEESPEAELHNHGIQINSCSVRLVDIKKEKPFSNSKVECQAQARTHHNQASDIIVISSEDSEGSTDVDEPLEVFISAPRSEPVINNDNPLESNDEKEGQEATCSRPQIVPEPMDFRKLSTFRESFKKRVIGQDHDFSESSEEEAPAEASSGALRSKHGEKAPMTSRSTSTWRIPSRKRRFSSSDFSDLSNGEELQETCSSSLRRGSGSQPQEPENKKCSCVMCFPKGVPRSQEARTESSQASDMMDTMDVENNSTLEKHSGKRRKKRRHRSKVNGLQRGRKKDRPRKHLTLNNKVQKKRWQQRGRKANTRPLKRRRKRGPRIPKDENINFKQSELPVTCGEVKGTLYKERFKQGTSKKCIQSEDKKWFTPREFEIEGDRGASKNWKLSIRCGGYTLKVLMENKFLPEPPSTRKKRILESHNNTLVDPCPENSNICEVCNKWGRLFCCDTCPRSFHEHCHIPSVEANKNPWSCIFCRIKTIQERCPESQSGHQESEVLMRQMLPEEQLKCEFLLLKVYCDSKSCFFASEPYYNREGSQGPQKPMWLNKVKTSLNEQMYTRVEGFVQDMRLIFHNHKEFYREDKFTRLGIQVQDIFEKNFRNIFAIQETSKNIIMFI
T21 sequence (Q09472 1049-1156 limits assumed): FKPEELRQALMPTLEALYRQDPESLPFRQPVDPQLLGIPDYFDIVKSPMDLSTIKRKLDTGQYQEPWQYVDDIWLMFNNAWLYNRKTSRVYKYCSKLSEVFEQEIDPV
T20 sequence (Q8IZX4 1517-1626 limits assumed): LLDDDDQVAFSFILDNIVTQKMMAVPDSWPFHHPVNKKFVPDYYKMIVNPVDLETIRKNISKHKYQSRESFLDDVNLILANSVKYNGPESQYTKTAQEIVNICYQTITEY
T14 sequence (P21675 1519-1628 limits assumed): as the sequence (Q8IZX4 1517-1626 limits assumed) above, with M46V, V51M, I102V, I107L counted along it
T25 sequence (Q86U86 381-487 limits assumed): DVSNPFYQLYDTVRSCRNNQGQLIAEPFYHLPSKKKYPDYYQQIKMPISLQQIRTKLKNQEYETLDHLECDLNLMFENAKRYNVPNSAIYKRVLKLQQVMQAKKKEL

With `CCOc1cc(C2CCN(C)CC2)ccc1Nc1ncc2c(n1)N(Cc1cc(C)cs1)[C@H](CC)C(=O)N2C` [16k, (R)-2-((2-Ethoxy-4-(1-methylpiperidin-4-yl)phenyl)amino)-7-ethyl-5-methyl-8-((4-methylthiophen-2-yl)methyl)-7,8-dihydropteridin-6(5H)-one] the “PAMPA pH7.4” value (PAMPA permeability assay) was 49 × 10^–6 cm/s, the remaining binding at 1 µM (PKAC-alpha) was 100% and the remaining binding at 1 µM (RIOK2) was 74%. For the same compound, the IC50 (ALK WT) was 60 ± 12 nM, the “concentration up to which no increase in mitotic markers and PLK-1 phosphorylation sites” value (HeLa cells; HeLa cells, Western blot) was over 10 µM and the “selectivity window for ALK^F1174L over PLK-1 in cells” value (HeLa cells; based on the cellular data) was 10–20 fold. For the same compound, the “expected cellular PLK-1 potency after similar drop-off” value (HeLa cells; extrapolated from BI-2536 drop-off) was over 2500 nM, the “Thermal Shift” value (BRDT(1)) was 2.7 K and the “Thermal Shift” value (BRD2(2)) was 3.95 K. The “Thermal Shift” value (SP100) was 0.05 K, the “Thermal Shift” value (BRD4(2)) was 4.4 K and the “Thermal Shift” value (BRD3(1)) was 7.3 K. The “Thermal Shift” value (SMARCA2A) was -2.4 K, the “Thermal Shift” value (BRPF1A) was 0.8 K and the “Thermal Shift” value (WDR9) was -4.2 K. The “Thermal Shift” value (TAF1A(1)) was -0.45 K, the “Thermal Shift” value (TRIM33B) was -1.2 K and the “Thermal Shift” value (BRD2(1)) was -0.95 K. The “Thermal Shift” value (SMARCA2B) was -0.35 K, the “Thermal Shift” value (PB1A(5)) was -0.7 K and the “Thermal Shift” value (TAF1A(2)) was -1.05 K. The “Thermal Shift” value (BRD3(2)) was 5.9 K, the “Thermal Shift” value (PB1A(6)) was -2.75 K and the “Thermal Shift” value (PB1A(1)) was 1.95 K. The “Thermal Shift” value (PB1A(4)) was -0.1 K, the “Thermal Shift” value (BRD1) was -0.15 K and the “Thermal Shift” value (TAF1LA(2)) was -2.9 K. The “Thermal Shift” value (EP300) was -1 K, the “Thermal Shift” value (BRDT(2)) was 0.6 K and the “Thermal Shift” value (PCAF) was -1.65 K. The “Thermal Shift” value (TAF1LA(1)) was -3.4 K, the “Thermal Shift” value (PB1A(3)) was 0.35 K and the “Thermal Shift” value (SMARCA4A) was -4.5 K.

— paper PMC6421522, “Designing Dual Inhibitors of Anaplastic Lymphoma Kinase (ALK) and Bromodomain-4 (BRD4) by Tuning Kinase Selectivity” (Journal of Medicinal Chemistry, 2019)
